In patent US20100204203A1, “Chemical Compounds 637: Pyridopyrimidinediones as PDE4 Inhibitors” (priority 2007, published 2010):

molecular target: recombinant Human Phosphodiesterase B2 (PDE4B2) (Homo sapiens, UniProt Q07343); assay: Human Phosphodiesterase B2 Radiometric Assay (yttrium silicate SPA beads, [3H]cyclic AMP); assay type: biochemical; settings: recombinant human PDE4B2, radiometric SPA assay, 8 nM [3H]cyclic AMP; read-out: PDE4B2 pIC50 (converted)
Method: Human Phosphodiesterase B2 Radiometric Assay
The assay uses recombinant Human Phosphodiesterase B2 (PDE4B2) produced in house (PrAZL0163), stored at −20° C. This assay is based on the observation that 5′AMP, the product of the reaction catalysed by PDE4, binds preferentially to yttrium silicate SPA beads (Amersham Biosciences, UK) compared to the substrate, cAMP. Compounds at the appropriate concentration were preincubated at 30 C for 30 min with an assay buffer containing 50 mM HEPES (pH 7.5), 8.3 mM MgCl2, 1.7 mM EGTA, 0.01% (w/v) Brij° 35 and 0.1 mg/mL recombinant PDE4B2. The reaction was started by the addition of [3H]cyclic AMP to give a final concentration of 8 nM, and was stopped 20 minutes after the addition of the substrate by the addition of yttrium silicate SPA beads containing 18 mM Zn SO4. Bound [3H]cyclic AMP was measured using a Topcount NXT (Packard Bioscience, UK). pIC50 values (presented in Table 15) were determined using Xlfit3 curve fitting, using model 205.

Sequence of recombinant Human Phosphodiesterase B2 (PDE4B2) (Q07343 1-564 isoform Q07343-2): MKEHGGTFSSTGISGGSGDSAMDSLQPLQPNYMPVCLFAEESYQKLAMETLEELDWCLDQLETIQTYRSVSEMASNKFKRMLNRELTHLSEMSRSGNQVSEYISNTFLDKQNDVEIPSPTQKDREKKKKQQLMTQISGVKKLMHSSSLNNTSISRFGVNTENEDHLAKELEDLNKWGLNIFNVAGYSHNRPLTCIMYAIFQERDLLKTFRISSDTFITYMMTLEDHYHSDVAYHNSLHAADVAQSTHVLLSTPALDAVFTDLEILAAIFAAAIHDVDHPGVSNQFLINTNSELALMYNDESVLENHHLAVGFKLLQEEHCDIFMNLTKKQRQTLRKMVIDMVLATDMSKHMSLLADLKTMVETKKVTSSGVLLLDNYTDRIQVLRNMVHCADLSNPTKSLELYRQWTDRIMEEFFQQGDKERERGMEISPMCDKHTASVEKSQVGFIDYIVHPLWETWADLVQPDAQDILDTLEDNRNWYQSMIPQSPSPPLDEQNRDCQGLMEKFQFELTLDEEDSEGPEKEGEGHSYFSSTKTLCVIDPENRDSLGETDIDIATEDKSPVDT

Compound	IC50 [nM]
O=c1c2cc(F)cnc2n(-c2cccc(-c3ccc(O)cc3CN3CCCCC3)c2)c(=O)n1[C@H]1CC[C@@H](NCc2cn3cc(F)ccc3n2)CC1 [Example 255, 6-Fluoro-3-(cis-4-{[(6-fluoroimidazo[1,2-c]pyridin-2-yl)methyl]amino}cyclohexyl)-1-[4′-hydroxy-2′-(piperidin-1-ylmethyl)biphenyl-3-yl]pyrido[2,3-d]pyrimidine-2,4(1H,3H)-dione]	0.126
O=C(N[C@H]1CC[C@@H](n2c(=O)c3cc(F)cnc3n(-c3cccc(-c4ccc(CN5CC[C@@H](O)C5)cc4)c3)c2=O)CC1)c1cn2cc(F)ccc2n1 [Example 56, 6-fluoro-N-{cis-4-[6-fluoro-1-(4′-{[(3R)-3-hydroxypyrrolidin-1-yl]methyl}biphenyl-3-yl)-2,4-dioxo-1,4-dihydropyrido[2,3-d]pyrimidin-3(2H)-yl]cyclohexyl}imidazo[1,2-a]pyridine-2-carboxamide]	0.0251
CN(C)Cc1ccccc1-c1cccc(-n2c(=O)n([C@H]3CC[C@@H](NC(=O)c4cn5cc(F)ccc5n4)CC3)c(=O)c3cc(F)cnc32)c1 [Example 33, N-{cis-4-[1-{2′-[(dimethylamino)methyl]biphenyl-3-yl}-6-fluoro-2,4-dioxo-1,4-dihydropyrido[2,3-d]pyrimidin-3(2H)-yl]cyclohexyl}-6-fluoroimidazo[1,2-c]pyridine-2-carboxamide.]	0.01
Cc1cc(C(=O)N[C@H]2CC[C@@H](n3c(=O)c4cc(F)cnc4n(-c4cccc(-c5ccc(O)cc5CN(C)C)c4)c3=O)CC2)nn1C [Example 348, N-{cis-4-[1-{2′-[(dimethylamino)methyl]-4′-hydroxybiphenyl-3-yl}-6-fluoro-2,4-dioxo-1,4-dihydropyrido[2,3-d]pyrimidin-3(2H)-yl]cyclohexyl}-1,5-dimethyl-1H-pyrazole-3-carboxamide]	0.0251
CN(C)[C@H]1CC[C@@H](n2c(=O)c3cc(F)cnc3n(-c3cccc(-c4ccccc4)c3)c2=O)CC1 [Example 66, 1-biphenyl-3-yl-3-[cis-4-(dimethylamino)cyclohexyl]-6-fluoropyrido[2,3-d]pyrimidine-2,4(1H,3H)-dione]	63.1
CC(C)CCNCc1ccc(-c2cccc(-n3c(=O)n([C@H]4CC[C@@H](NC(=O)c5cn6c(n5)CCCC6)CC4)c(=O)c4cc(F)cnc43)c2)cc1 [Example 122, N-{cis-4-[6-fluoro-1-(4′-{[(3-methylbutyl)amino]methyl}biphenyl-3-yl)-2,4-dioxo-1,4-dihydropyrido[2,3-d]pyrimidin-3(2H)-yl]cyclohexyl}-5,6,7,8-tetrahydroimidazo[1,2-a]pyridine-2-carboxamide]	0.0501
CCN(CC)Cc1ccc(-c2cccc(-n3c(=O)n([C@H]4CC[C@@H](NC(=O)C5(N(C)C)CC5)CC4)c(=O)c4cc(F)cnc43)c2)cc1 [Example 127, N-{cis-4-[1-{4′-[(diethylamino)methyl]biphenyl-3-yl}-6-fluoro-2,4-dioxo-1,4-dihydropyrido[2,3-d]pyrimidin-3(2H)-yl]cyclohexyl}-1-(dimethylamino)cyclopropanecarboxamide]	0.2
CSc1ncc(-c2cccc(-n3c(=O)n([C@H]4CC[C@@H](NC(=O)c5cn6cc(F)ccc6n5)CC4)c(=O)c4cc(F)cnc43)c2)cn1 [Example 30, 6-fluoro-N-{cis-4-[6-fluoro-1-{3-[2-(methylthio)pyrimidin-5-yl]phenyl}-2,4-dioxo-1,4-dihydropyrido[2,3-d]pyrimidin-3(2H)-yl]cyclohexyl}imidazo[1,2-a]pyridine-2-carboxamide.]	0.0158
CC(C)NC(=O)CN1CCN(Cc2ccc(-c3cccc(-n4c(=O)n([C@H]5CC[C@@H](NC(=O)c6cn7c(n6)CCCC7)CC5)c(=O)c5cc(F)cnc54)c3)cc2)CC1 [Example 219, N-{cis-4-[6-fluoro-1-[4′-({4-[2-(isopropylamino)-2-oxoethyl]piperazin-1-yl}methyl)biphenyl-3-yl]-2,4-dioxo-1,4-dihydropyrido[2,3-d]pyrimidin-3(2H)-yl]cyclohexyl}-5,6,7,8-tetrahydroimidazo[1,2-a]pyridine-2-carboxamide]	0.00501
O=C(N[C@H]1CC[C@@H](n2c(=O)c3cc(F)cnc3n(-c3cccc(-c4ccc(CN5CCOCC5)cc4)c3)c2=O)CC1)c1cn2c(n1)CCCC2 [Example 109, N-{cis-4-[6-fluoro-1-[4′-(morpholin-4-ylmethyl)biphenyl-3-yl]-2,4-dioxo-1,4-dihydropyrido[2,3-d]pyrimidin-3(2H)-yl]cyclohexyl}-5,6,7,8-tetrahydroimidazo[1,2-a]pyridine-2-carboxamide]	0.0158
CN1CCCN(Cc2ccc(-c3cccc(-n4c(=O)n([C@H]5CC[C@@H](NC(=O)CN6CCCCC6)CC5)c(=O)c5cc(F)cnc54)c3)cc2)CC1 [Example 292, N-{cis-4-[6-fluoro-1-{4′-[(4-methyl-1,4-diazepan-1-yl)methyl]biphenyl-3-yl}-2,4-dioxo-1,4-dihydropyrido[2,3-d]pyrimidin-3(2H)-yl]cyclohexyl}-2-piperidin-1-ylacetamide]	0.0316
CN(C)CCCOc1cc(F)ccc1-c1cccc(-n2c(=O)n([C@H]3CC[C@@H](NC(=O)c4cn5cc(F)ccc5n4)CC3)c(=O)c3cc(F)cnc32)c1 [Example 84, N-{cis-4-[1-{2′-[3-(dimethylamino)propoxy]-4′-fluorobiphenyl-3-yl}-6-fluoro-2,4-dioxo-1,4-dihydropyrido[2,3-d]pyrimidin-3(2H)-yl]cyclohexyl}-6-fluoroimidazo[1,2-a]pyridine-2-carboxamide]	0.2
O=c1c2cc(F)cnc2n(-c2cccc(-c3ccc(O)cc3CN3CCSCC3)c2)c(=O)n1[C@H]1CC[C@@H](NCc2cn3cc(F)ccc3n2)CC1 [Example 253, 6-Fluoro-3-(cis-4-{[(6-fluoroimidazo[1,2-c]pyridin-2-yl)methyl]amino}cyclohexyl)-1-[4′-hydroxy-2′-(thiomorpholin-4-ylmethyl)biphenyl-3-yl]pyrido[2,3-d]pyrimidine-2,4(1H,3H)-dione]	0.0158
CC(C)(C)OC(=O)N1CCN(CC(=O)N[C@H]2CC[C@@H](n3c(=O)c4cc(F)cnc4n(-c4cccc(-c5ccccc5)c4)c3=O)CC2)CC1 [Example 105, tert-butyl 4-(2-{[cis-4-(1-biphenyl-3-yl-6-fluoro-2,4-dioxo-1,4-dihydropyrido[2,3-d]pyrimidin-3(2H)-yl)cyclohexyl]amino}-2-oxoethyl)piperazine-1-carboxylate]	0.0251
Cc1cc(-c2ccc(CN3CCNCC3)cc2)cc(-n2c(=O)n([C@H]3CC[C@@H](NC(=O)c4cn5cc(F)ccc5n4)CC3)c(=O)c3cc(F)cnc32)c1 [Example 230, 6-Fluoro-N-{cis-4-[6-fluoro-1-[5-methyl-4′-(piperazin-1-ylmethyl)biphenyl-3-yl]-2,4-dioxo-1,4-dihydropyrido[2,3-d]pyrimidin-3 (2H)-yl]cyclohexyl}imidazo[1,2-a]pyridine-2-carboxamide]	0.0316
O=C(N[C@H]1CC[C@@H](n2c(=O)c3cc(F)cnc3n(-c3cccc(-c4ccc(CN5CCNCC5)cc4)c3)c2=O)CC1)c1cn2cc(F)ccc2n1 [Example 54, 6-fluoro-N-{cis-4-[6-fluoro-2,4-dioxo-1-[4′-(piperazin-1-ylmethyl)biphenyl-3-yl]-1,4-dihydropyrido[2,3-d]pyrimidin-3(2H)-yl]cyclohexyl}imidazo[1,2-a]pyridine-2-carboxamide]	0.0158
